Assay results published in PMC10777855, “Pharmacological validation of dihydrofolate reductase as a drug target in Mycobacterium abscessus” (Antimicrobial Agents and Chemotherapy, 2023).

What follows are compounds tested against T1, M. abscessus DHFR (recombinant) (Mycobacteroides abscessus, UniProt B1MD46) (assay: NADPH absorbance decrease at […] nm (DHFR kit CS0340)). Conditions: read-out: IC50 (μM) ^ b.
T1 construct: gene MAB_3090c; E. coli codon-optimised gene in pET28a (NcoI/XhoI), N-terminal His6-tag, expressed in E. coli BL21(DE3), Ni-NTA purified; tag removal not mentioned
T1 sequence (B1MD46 1-163): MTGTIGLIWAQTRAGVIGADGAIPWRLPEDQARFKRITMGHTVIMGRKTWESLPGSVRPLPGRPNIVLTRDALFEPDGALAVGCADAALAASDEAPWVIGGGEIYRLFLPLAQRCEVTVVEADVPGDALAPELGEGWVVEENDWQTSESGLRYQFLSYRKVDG
Format: biochemical

Compound | IC50 [µM]
CN(Cc1cnc2nc(N)nc(N)c2n1)c1ccc(C(=O)N[C@@H](CCC(=O)O)C(=O)O)cc1 [Methotrexate] | 0.016
CCc1nc(N)nc(N)c1-c1ccc(Cl)cc1 [Pyrimethamine] | 4.7
COc1cc(Cc2cnc(N)nc2N)c2c(c1OC)OC(C1CC1)C=C2 (stereo not shown) [Iclaprim] | 0.6
N#Cc1ccc(Cn2ccc3c4c(N)nc(N)nc4ccc32)cc1 [PQD-1] | 0.0025
COc1cc(Cc2cnc(N)nc2N)cc(OC)c1OC [Trimethoprim] | 25
C#CCC(Cc1cnc2nc(N)nc(N)c2n1)c1ccc(C(=O)N[C@@H](CCC(=O)O)C(=O)O)cc1 (stereo partly shown) [Pralatrexate] | 0.21
COc1cc(Cc2cnc(N)nc2N)cc(OC)c1Br [Brodimoprim] | 1.7
CC1(C)N=C(N)N=C(N)N1OCCCOc1cc(Cl)c(Cl)cc1Cl [WR99210] | 0.016
COCCOc1c(OC)cc(Cc2cnc(N)nc2N)cc1OC [Tetroxoprim] | 20
COc1cc(NCc2ccc3nc(N)nc(N)c3c2C)cc(OC)c1OC [Trimetrexate] | 0.005

Same assay, conditions: read-out: IC50 ^ b

Compound | IC50 [µM]
Nc1nc(N)c2c(ccc3c2ccn3Cc2ccc(F)cc2)n1 [PQD-8] | 0.02
Cc1ccccc1Cn1ccc2c3c(N)nc(N)nc3ccc21 [PQD-6] | 0.015
Cc1cccc(Cn2ccc3c4c(N)nc(N)nc4ccc32)n1 [PQD-4] | 0.015
CC(C)Nc1nc(N)c2c(ccc3c2ccn3Cc2ccc(C(C)C)cc2)n1 [PQD-10] | 4.1
Nc1nc(N)c2c(ccc3c2ccn3Cc2cccc(Cl)c2)n1 [PQD-9] | 0.03
Nc1nc(N)c2c(ccc3c2ccn3Cc2ccc3ccccc3c2)n1 [PQD-7] | 0.015
COC(=O)c1ccc(Cn2ccc3c4c(N)nc(N)nc4ccc32)cc1 [PQD-3] | 0.015
N#Cc1cccc(Cn2ccc3c4c(N)nc(N)nc4ccc32)c1 [PQD-2] | 0.0034
N#Cc1ccccc1Cn1ccc2c3c(N)nc(N)nc3ccc21 [PQD-5] | 0.016
